From patent US20080058324A1, “Alpha-Keto Carbonyl Calpain Inhibitors” (SANTHERA PHARMACEUTICALS (SCHWEIZ) AG, priority 2004, published 2008)

What was measured:
[1] = system: cellular calpains in C2C12 myoblasts; assay: Calpain Inhibition Assay in C2C12 Myoblasts; format: cell-based; conditions: read-out: Calp I IC50 Myoblast
Procedure: This assay is aimed at monitoring the ability of the substance to inhibit cellular calpains. C2C12 myoblasts are grown in 96-well plates in growth medium (DMEM, 20% foetal calf serum) until they reach confluency. The growth medium is then replaced by fusion medium (DMEM, 5% horse serum). 24 hours later the fusion medium is replaced by fusion medium containing the test substances dissolved in 1 μl DMSO. After 2 hours of incubation at 37° C. the cells are loaded with the calpain fluorogenic substrate Suc-Leu-Tyr-AMC at 400 μM in 50 μl of a reaction buffer containing 135 mM NaCl; 5 mM KCl; 4 mM CaCl2; 1 mM MgCl2; 10 mM Glucose; 10 mM HEPES pH 7.25 for 20 min at room temperature. The calcium influx, necessary to activate the cellular calpains, is evoked by the addition of 50 μl reaction buffer containing 20 μM of the calcium ionophore Br-A-23187 (Molecular Probes). The fluorescence of the cleavage product AMC is measured as described above during 60 min at 37° C. at intervals of 1 min. The IC50 values are determined as described above. Comparison of the IC50 determined in the enzymatic calpain inhibition assay to the IC50 determined in the C2C12 myoblasts calpain inhibiton assay, allows to evaluate the cellular uptake or the membrane permeability of the substance.

mdx mouse = mdx mouse model for Duchenne Muscular Dystrophy, longterm treatment; format: in vivo; conditions: mdx mice, 4 weeks; for adverse effects upon longterm treatment: 20 mg/kg every 2nd day
Procedure: The mdx mouse is a well established animal model for Duchenne Muscular Dystrophy (Bulfield G., Siller W. G., Wight P. A., Moore K. J., X chromosome-linked muscular dystrophy (mdx) in the mouse, Proc. Natl. Acad. Sci. USA., 1984, 81(4), 1189-1192). Selected compounds were tested in longterm treatments of mdx mice, according to the procedures described below.
Mouse strains: C57BL/10scsn and C57BL/10scsn mdx mouse strains were purchased at The Jackson Laboratory (ME, USA) and bred inhouse. Mouse males were sacrificed at the age of 3 or 7 weeks by CO2 asphyxiation.
Treatment: Compounds were dissolved in 50% PEG, 50% saline solution and applied by i.p. injection.
Histology: Tibialis anterior (TA), quadriceps (Quad), and diaphragm (Dia) muscles were collected and mounted on cork supports using gum tragacanth (Sigma-Aldrich, Germany). The samples were snap-frozen in melting isopentane and stored at −80° C. 12 μm thick cryosections of the mid-belly region of muscles were prepared. For staining, sections were air dried and fixed with 4% PFA in PBS for 5 minutes, washed 3 times with PBS and incubated over night at 4° C. in PBS containing 2 μg/ml Alexa Fluor™ 488 conjugated wheat-germ agglutinin (WGA-Alexa, Molecular Probes, Eugen, Oreg., USA) to stain membrane-bound and extracellular epitopes and 1 μg/ml 4′,6-diamidino-2-phenylindole (DAPI; Molecular Probes) to stain nuclei.
Image acquisition and analysis: Fluorescence microscopy images of both labels were acquired using a digital camera (ColorView II, Soft Imaging System, Müinster, Germany) coupled to a fluorescence microscope (Vanox S, Olympus, Tokyo, Japan). Combination of these two stainings to a composite image, assembling of several images to a complete image of the entire muscle cross-section and further semi-automated analysis was performed using the image analysis program AnalySIS (Soft Imaging System). Image analysis of 1200-2900 muscle fibers in each section was performed in three steps: 1) determination of the muscle fiber boundaries, 2) determination of the muscle fiber size, and 3) determination of the percentage of muscle fibers containing centralized nuclei. Six different geometrical parameters were tested for the determination of the muscle fiber size: (a) the “minimal feret” (the minimum distance of parallel tangents at opposing borders of the muscle fiber), (b) the “area”, (c) the “minimal inner diameter” (the minimum diameter through the center of the muscle fiber), (d) the “minimal diameter” (the minimum diameter of a muscle fiber for angles in the range 0° through 179° with step width 1°, (e) the “minimal outer diameter” (the minimum diameter through the muscle fiber from outer border to outer border), and (f) the “perimeter”. The variance coefficient of the muscle fiber size is defined as follows: variance coefficient=(standard deviation of the muscle fiber size/mean of the muscle fiber size of the section)*[…]. For statistical analysis of different variance coefficient values Mann-Whitney U test was used.
Selected Examples of the present invention were active in the mdx mouse model at 20 mg/kg every 2nd day, using 3 week old mice and a treatment period of 4 weeks (N=5-10).

[2] = system: utrophin expression in human DMD myotubes; assay: Utrophin Expression Assay in Human Myotubes; format: cell-based; conditions: 50 nM test compound
Procedure: Utrophin induction was determined by a method which was similar to a method of I. Courdier-Fruh et al., Neuromuscular Disord., 2002, 12, S95-S104.
Primary human muscle cell cultures were prepared from muscle biopsies taken during orthopedic surgery from Duchenne patients (provided by the Association Francaise contre les Myopathies). Cultures were prepared and maintained according to standard protocols. Induction of utrophin expression in human DMD myotubes was assayed at 50 nM or 500 nM of test compound added in differentiation medium. Normalized utrophin protein levels are determined after 5-6 d of incubation by cell-based ELISA with a mouse monoclonal antibody to the aminoterminal portion of utrophin (NCL-DRP2, Novocastra Laboratories). For calibration, the cell density and differentiation was determined by absorbance measurements of the total dehydrogenase enzyme activity in each well using the colorimetric CellTiter 96®AQ One Solution Reagent Proliferation Assay (Promega) according to the manufacturer's recommendation. […] Utrophin protein levels were determined immunologically with utrophin-specific primary antibody and with anappropriate peroxidase-coupled secondary antibody (Jackson ImmunoResearch Laboratories) using QuantaBlu™ Fluorogenic Peroxidase Substrate Kit (Pierce) for detection. […] The primary readout of this signal is presented in arbitrary units. […]

[3] = 20 mg/kg every 2nd day i.p., diaphragm, vs vehicle-treated mdx mice
[4] = 20 mg/kg every 2nd day i.p., tibialis anterior, vs vehicle-treated mdx mice

| IC50 [1] | melting point | SMILES | decrease in the variance coefficient of the muscle fiber size, Dia (mdx mouse; [3]) | decrease in the variance coefficient of the muscle fiber size, TA (mdx mouse; [4]) | reduction of the percentage of centralized nuclei, TA (mdx mouse; [4]) | adverse effects upon longterm treatment (mdx mouse) | UTR Induction @50 nM [2] | reduction of the percentage of centralized nuclei, Dia (mdx mouse; [3]) | decrease in the variance coefficient of the muscle fiber size, Quad (mdx mouse; 20 mg/kg every 2nd day i.p., quadriceps, vs vehicle-treated mdx mice) |
| --- | --- | --- | --- | --- | --- | --- | --- | --- | --- |
| 50 nM |  | CCNC(=O)C(=O)[C@H](Cc1ccc(Cl)cc1)NC(=O)[C@@H](NC(=O)[C@H](Cc1ccccc1)NC(=O)CCCCc1cccs1)C(C)C [Example 1] | 26% | 26% | 17% | No prominent adverse effects |  |  |  |
| 150 nM | 238 to 241 °C | CCNC(=O)C(=O)C(Cc1ccc(Cl)cc1)NC(=O)C(NC(=O)C(Cc1cccc2ccccc12)NC(=O)CCCCc1cccs1)C(C)C (stereo not shown) [Example 22] |  |  |  |  | 117% |  |  |
| 10 nM | 238 to 240 °C | CCNC(=O)C(=O)C(Cc1ccc(OC)cc1)NC(=O)C(NC(=O)C(CCc1ccccc1)NC(=O)CCc1cccs1)C(C)C (stereo not shown) [Example 520] | 40% |  | 13% | No prominent adverse effects | 134% | 26% | 31% |
